Experiments:
fast spreading vitiligo = test: Clinical trial: arrest of disease activity with oral minipulse (OMP) of beta methasone with or without local active peptide; assay type: in vivo, human volunteers
From the text: (§1) That this happens was shown in a clinical trial on human volunteers. The above twin objectives were accomplished. Fig.2a describes two vitiligo patches at the start of treatment of oral steroids, while 2b describes the same patches at the end of 3 months of treatment with oral steroids while at the same time bFGF peptide(s) lotion was applied locally once a day on the lower vitiligo patch for the duration of intake of oral steroids. […] The arrest of the fast spread of the disease was accomplished to the same extent of 84% at the end of 6 months of treatment with oral steroids and the result was not altered by the local application of bFGF peptide(s) lotion (See table 3 for more details).

[1] = system: vitiligo patches of volunteers; test: Clinical trial: repigmentation with oral minipulse of beta methasone with or without local active peptide; assay type: in vivo, human volunteers
From the text: as §1
At the end of 3 months of combinatorial treatment with steroids and local application of bFGF lotion more than 3 fold more patients got pigmented to a marked extent than with steroid alone (See Table 4 for more details). The percentage of volunteers who had moderate and marked rate of repigmentation with combinatorial therapy at the end of three months of treatment is twice than the steroid therapy alone.

For C[C@H]1C[C@H]2[C@@H]3CCC4=CC(=O)C=C[C@]4(C)[C@@]3(F)[C@@H](O)C[C@]2(C)[C@@]1(O)C(=O)CO [OMP Alone, beta methasone], the “No. of patients where the disease was arrested with time” value (fast spreading vitiligo; At 3 months) was 12, the “Patients where the disease was arrested, percent” value (fast spreading vitiligo; At 3 months) was 75% and the “No. of patients where the disease was arrested with time” value (fast spreading vitiligo; At 6 months) was 14. For the same molecule, the “Patients where the disease was arrested, percent” value (fast spreading vitiligo; At 6 months) was 87.5%, the “Patients where the disease was arrested, percent” value (fast spreading vitiligo; At 6 months, listed as oral steroids) was 84% and the “Repigmentation Marked, number of volunteers” value ([1]; At 3 months) was 2. For the same molecule, the “Repigmentation Minimal, number of volunteers” value ([1]; At 3 months) was 11, the “Repigmentation Moderate, number of volunteers” value ([1]; At 3 months) was 3 and the “Repigmentation Marked, number of volunteers” value ([1]; At 6 months) was 4. The “Repigmentation Minimal, number of volunteers” value ([1]; At 6 months) was 8 and the “Repigmentation Moderate, number of volunteers” value ([1]; At 6 months) was 4.
